Measurements from patent US20240132525A1, “BORON […], CO[…], METHODS AND USES THEREOF” (priority 2022, published 2024).
Structures can show the parent of a compound that is named as a salt. Where two headings read alike, the source gives them in different places.

Experiments:
JAK1 = JAK1 (Homo sapiens (Human), UniProt P23458); test: Biochemical kinase assay (33P-ATP filter-binding), JAK1
Text: (§1) Biochemical Kinase Assay Protocol (JAK)
(§2) Reaction Procedure: • 1. […] Detected kinase activity by filter-binding method.

JAK2 = JAK2 (Homo sapiens (Human), UniProt O60674); test: Biochemical kinase assay (33P-ATP filter-binding), JAK2
Text: as §1, §2

[1] = Dog LM (liver microsome) assay; assay type: in vitro ADME; settings: Table 3a; predicted clearance as percent of liver blood flow, 1 μM, 1 mg/ml microsomal protein
Procedure: Dog LM (Liver Microsome) Assay
The metabolic degradation of the test compound is assayed at 37° C. with pooled liver microsomes from dogs (Beagle). The final incubation volume of 100 μl per time point contains TRIS buffer pH 7.6 at RT (0.1 M), magnesium chloride (5 mM), microsomal protein (1 mg/ml) and the test compound at a final concentration of 1 μM. Following a short preincubation period at 37° C., the reactions were initiated by addition of beta-nicotinamide adenine dinucleotide phosphate, reduced form (NADPH, 1 mM) and terminated by transferring an aliquot into solvent after different time points. Additionally, the NADPH-independent degradation was monitored in incubations without NADPH, terminated at the last time point. The [%] remaining test compound after NADPH independent incubation is reflected by the parameter c (control) (metabolic stability). The quenched incubations are pelleted by centrifugation (10000 g, 5 min). An aliquot of the supernatant is assayed by LC-MS/MS for the amount of parent compound. The half-life (t½ INVITRO) is determined by the slope of the semilogarithmic plot of the concentration-time profile. The intrinsic clearance (CL_[…]) is calculated by considering the amount of protein in the incubation: CL_[…] [μl/min/mg protein]=(Ln 2/(half-life [min]*protein content [mg/ml]))*1000. For better across species comparison the predicted clearance is expressed as percent of the liver blood flow [% QH] in the individual species. In general, high stability (corresponding to low % QH) of the compounds across species is desired.

Sequence of JAK2 (O60674 whole entry, species assumed): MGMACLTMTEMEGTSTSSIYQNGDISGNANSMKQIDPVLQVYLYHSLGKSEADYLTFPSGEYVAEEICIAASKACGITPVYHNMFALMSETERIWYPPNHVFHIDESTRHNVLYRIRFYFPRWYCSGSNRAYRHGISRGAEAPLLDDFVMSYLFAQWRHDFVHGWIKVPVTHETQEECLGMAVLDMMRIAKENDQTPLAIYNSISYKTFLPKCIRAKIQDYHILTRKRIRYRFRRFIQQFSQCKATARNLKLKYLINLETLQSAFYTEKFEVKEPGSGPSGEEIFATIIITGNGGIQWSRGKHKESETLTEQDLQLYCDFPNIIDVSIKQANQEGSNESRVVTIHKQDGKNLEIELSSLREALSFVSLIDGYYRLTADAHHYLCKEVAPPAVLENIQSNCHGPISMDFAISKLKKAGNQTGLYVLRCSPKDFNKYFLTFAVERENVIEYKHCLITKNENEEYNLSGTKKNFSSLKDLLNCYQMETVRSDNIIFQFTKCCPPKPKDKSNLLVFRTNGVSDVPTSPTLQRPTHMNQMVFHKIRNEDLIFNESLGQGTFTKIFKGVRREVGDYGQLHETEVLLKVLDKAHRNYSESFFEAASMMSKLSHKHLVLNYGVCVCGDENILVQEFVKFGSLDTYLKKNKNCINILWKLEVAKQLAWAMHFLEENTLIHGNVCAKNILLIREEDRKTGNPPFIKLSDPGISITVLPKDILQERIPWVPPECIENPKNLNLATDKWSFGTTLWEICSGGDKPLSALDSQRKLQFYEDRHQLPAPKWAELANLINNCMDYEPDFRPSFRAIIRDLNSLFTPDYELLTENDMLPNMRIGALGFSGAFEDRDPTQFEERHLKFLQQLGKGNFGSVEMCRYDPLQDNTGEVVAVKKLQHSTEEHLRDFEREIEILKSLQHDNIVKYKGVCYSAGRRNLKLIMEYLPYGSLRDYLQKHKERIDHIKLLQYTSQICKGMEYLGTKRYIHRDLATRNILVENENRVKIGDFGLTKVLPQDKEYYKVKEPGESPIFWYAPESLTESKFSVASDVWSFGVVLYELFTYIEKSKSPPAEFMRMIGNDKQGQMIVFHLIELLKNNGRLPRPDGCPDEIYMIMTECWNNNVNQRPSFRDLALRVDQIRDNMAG
Sequence of JAK1 (P23458 whole entry, species assumed): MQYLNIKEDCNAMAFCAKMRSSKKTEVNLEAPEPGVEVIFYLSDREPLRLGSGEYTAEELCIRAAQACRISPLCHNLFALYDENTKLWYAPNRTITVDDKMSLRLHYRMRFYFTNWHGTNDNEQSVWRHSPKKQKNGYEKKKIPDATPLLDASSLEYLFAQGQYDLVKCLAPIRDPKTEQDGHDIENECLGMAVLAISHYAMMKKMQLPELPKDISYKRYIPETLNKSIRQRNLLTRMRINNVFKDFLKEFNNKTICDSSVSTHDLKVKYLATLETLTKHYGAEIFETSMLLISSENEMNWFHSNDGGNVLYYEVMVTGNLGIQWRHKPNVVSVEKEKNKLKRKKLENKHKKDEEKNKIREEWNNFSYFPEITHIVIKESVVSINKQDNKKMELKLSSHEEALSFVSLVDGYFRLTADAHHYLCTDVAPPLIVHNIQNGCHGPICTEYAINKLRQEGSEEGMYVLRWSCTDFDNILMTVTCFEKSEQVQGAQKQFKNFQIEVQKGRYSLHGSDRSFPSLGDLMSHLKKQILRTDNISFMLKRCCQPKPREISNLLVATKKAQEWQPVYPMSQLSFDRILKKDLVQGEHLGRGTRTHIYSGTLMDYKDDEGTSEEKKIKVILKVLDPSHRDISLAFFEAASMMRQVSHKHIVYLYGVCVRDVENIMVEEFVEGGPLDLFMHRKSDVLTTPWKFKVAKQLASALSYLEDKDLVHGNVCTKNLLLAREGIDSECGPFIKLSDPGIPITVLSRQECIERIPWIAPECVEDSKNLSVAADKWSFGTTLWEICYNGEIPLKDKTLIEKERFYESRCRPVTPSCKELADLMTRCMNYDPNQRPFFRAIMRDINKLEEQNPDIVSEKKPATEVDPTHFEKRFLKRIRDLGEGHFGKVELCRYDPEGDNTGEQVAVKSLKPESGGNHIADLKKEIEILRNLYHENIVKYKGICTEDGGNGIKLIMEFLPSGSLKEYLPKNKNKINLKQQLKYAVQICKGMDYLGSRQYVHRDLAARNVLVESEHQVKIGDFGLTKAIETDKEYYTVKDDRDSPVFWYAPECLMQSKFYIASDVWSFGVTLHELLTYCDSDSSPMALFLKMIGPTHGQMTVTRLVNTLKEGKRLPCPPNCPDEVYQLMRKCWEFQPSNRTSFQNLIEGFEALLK

Structure (SMILES) | IC50 (JAK1; Table 3a, read-out: IC50 JAK1) [nM] | IC50 (JAK2; Table 3a, read-out: IC50 JAK2) [nM] | Dog LM QH [1] [%] | IC50 (JAK1; IC50 JAK1, Table 3a) [nM] | IC50 (JAK2; IC50 JAK2, Table 3a) [nM]
Cc1cnc(Nc2cc(C)c3c(c2)COB3O)nc1N[C@@H]1CCCC[C@H]1C#N (relative stereo) [Example 009, (trans)-2-((2-((1-hydroxy-7-methyl-1,3-dihydrobenzo[c][1,2]oxaborol-5-yl)amino)-5-methylpyrimidin-4-yl)amino)cyclohexane-1-carbonitrile] | 1.1 | 13.8 | <19.9 |  | 
Cc1cnc(Nc2ccc3c(c2)C(C)(C)OB3O)nc1N[C@@H]1CCCC[C@H]1C#N (relative stereo) [Example 014, (trans)-2-[[2-[(1-hydroxy-3,3-dimethyl-2,1-benzoxaborol-5-yl)amino]-5-methylpyrimidin-4-yl]amino]cyclohexanecarbonitrile hydrochloride] | 1.4 | 6.3 | 48.7 |  | 
CC1=Cc2cc(Nc3ncc(C)c(N[C@@H]4CCCC[C@H]4C#N)n3)ccc2OB1O (relative stereo) [Example 016, (trans)-2-((2-((2-hydroxy-3-methyl-2H-benzo[e][1,2]oxaborinin-6-yl)amino)-5-methylpyrimidin-4-yl)amino)cyclohexane-1-carbonitrile] | 2.5 | 17.5 | 70.2 |  | 
Cc1cnc(Nc2cc(C#N)c3c(c2)COB3O)nc1N[C@@H]1CCC[C@H]1C#N (relative stereo) [Example 018, 5-((4-(((trans)-2-cyanocyclopentyl)amino)-5-methylpyrimidin-2-yl)amino)-1-hydroxy-1,3-dihydrobenzo[c][1,2]oxaborole-7-carbonitrile] | 0.5 | 10.4 | <19.9 |  | 
Cc1cnc(Nc2cc3c(c(C4CC4)c2)B(O)OC3)nc1N[C@@H]1COCC[C@H]1C#N (relative stereo) [Example 025, (trans)-3-[[2-[(7-cyclopropyl-1-hydroxy-3H-2,1-benzoxaborol-5-yl)amino]-5-methyl-pyrimidin-4-yl]amino]tetrahydropyran-4-carbonitrile] | 0.4 | 24.2 | <19.9 |  | 
Cc1cnc(Nc2ccc3c(c2)OB(O)C=C3)nc1N[C@@H]1COCC[C@H]1C#N (relative stereo) [Example 034, (trans)-3-[[2-[(2-hydroxy-1,2-benzoxaborinin-7-yl)amino]-5-methyl-pyrimidin-4-yl]amino]tetrahydropyran-4-carbonitrile] | 1.1 | 33.7 | 74.7 |  | 
Cc1cnc(Nc2cc(Cl)c3c(c2)COB3O)nc1NC1CCCC[C@@H]1C#N (single isomer, unassigned) [Example 010b, (trans)-2-[[2-[(7-chloro-1-hydroxy-3H-2,1-benzoxaborol-5-yl)amino]-5-methyl-pyrimidin-4-yl]amino]cyclohexanecarbonitrile] |  |  | <19.9 |  | 
Cc1cnc(Nc2cc3c(c(C(F)(F)F)c2)B(O)OC3)nc1N[C@H]1CCCC[C@@H]1C#N (single isomer, unassigned) [Example 011b, (trans)-2-((2-((1-hydroxy-7-(trifluoromethyl)-1,3-dihydrobenzo[c][1,2]oxaborol-5-yl)amino)-5-methylpyrimidin-4-yl)amino)cyclohexane-1-carbonitrile] | 10 | 197 | <19.9 |  | 
Cc1cnc(Nc2cc(C#N)c3c(c2)COB3O)nc1N[C@H]1CCCC[C@@H]1C#N (single isomer, unassigned) [Example 012a, 5-((4-(((trans)-2-cyanocyclohexyl)amino)-5-methylpyrimidin-2-yl)amino)-1-hydroxy-1,3-dihydrobenzo[c][1,2]oxaborole-7-carbonitrile] | 0.6 | 2.4 | <19.9 |  | 
Cc1cnc(Nc2cc(C#N)c3c(c2)COB3O)nc1N[C@H]1CCCC[C@@H]1C#N (single isomer, unassigned) [Example 012b, 5-((4-(((trans)-2-cyanocyclohexyl)amino)-5-methylpyrimidin-2-yl)amino)-1-hydroxy-1,3-dihydrobenzo[c][1,2]oxaborole-7-carbonitrile] | 8.2 | 126 | <19.9 |  | 
Cc1cnc(Nc2ccc3c(c2)COB3O)nc1N[C@@H]1COCC[C@H]1C#N (single isomer, unassigned) [Example 026b, (trans)-3-((2-((1-hydroxy-1,3-dihydrobenzo[c][1,2]oxaborol-5-yl)amino)-5-methylpyrimidin-4-yl)amino)tetrahydro-2H-pyran-4-carbonitrile] | 47.1 | 95.3 | <19.9 |  | 
Cc1cnc(Nc2cc(F)c3c(c2)COB3O)nc1N[C@@H]1COCC[C@H]1C#N (single isomer, unassigned) [Example 029b, (trans)-3-[[2-[(7-fluoro-1-hydroxy-3H-2,1-benzoxaborol-5-yl)amino]-5-methyl-pyrimidin-4-yl]amino]tetrahydropyran-4-carbonitrile] | 4 | 89.8 | <19.9 |  | 
Cc1cnc(Nc2cc(Cl)c3c(c2)COB3O)nc1N[C@@H]1COCC[C@H]1C#N (single isomer, unassigned) [Example 031a, (trans)-3-((2-((7-chloro-1-hydroxy-1,3-dihydrobenzo[c][1,2]oxaborol-5-yl)amino)-5-methylpyrimidin-4-yl)amino)tetrahydro-2H-pyran-4-carbonitrile] |  |  | <19.9 |  | 
Cc1cnc(Nc2cc3c(c(C(F)(F)F)c2)B(O)OC3)nc1N[C@@H]1COCC[C@H]1C#N (single isomer, unassigned) [Example 033b, (trans)-3-[[2-[[1-hydroxy-7-(trifluoromethyl)-3H-2,1-benzoxaborol-5-yl]amino]-5-methyl-pyrimidin-4-yl]amino]tetrahydropyran-4-carbonitrile] | 16.3 | 389 | 64.9 |  | 
Cc1cnc(Nc2cc(F)c3c(c2)C=CB(O)O3)nc1N[C@@H]1COCC[C@H]1C#N (single isomer, unassigned) [Example 036b, (trans)-3-((2-((8-fluoro-2-hydroxy-2H-benzo[e][1,2]oxaborinin-6-yl)amino)-5-methylpyrimidin-4-yl)amino)tetrahydro-2H-pyran-4-carbonitrile] | 8.2 | 102 | 37.3 |  | 
Cc1cnc(Nc2ccc3c(c2)C(C(C)C)=CB(O)O3)nc1N[C@H]1COCC[C@@H]1C#N (single isomer, unassigned) [Example 039b, (trans)-3-((2-((2-hydroxy-4-isopropyl-2H-benzo[e][1,2]oxaborinin-6-yl)amino)-5-methylpyrimidin-4-yl)amino)tetrahydro-2H-pyran-4-carbonitrile] | 216 | 2040 | 72.1 |  | 
Cc1cnc(Nc2cc(Cl)c3c(c2)C(C(C)C)=CB(O)O3)nc1N[C@H]1COCC[C@@H]1C#N (single isomer, unassigned) [Example 040a, (trans)-3-((2-((8-chloro-2-hydroxy-4-isopropyl-2H-benzo[e][1,2]oxaborinin-6-yl)amino)-5-methylpyrimidin-4-yl)amino)tetrahydro-2H-pyran-4-carbonitrile] | > 1000 | > 1000 | 32.9 |  | 
Cc1cc(Nc2ncc(Cl)c(N[C@H]3COCC[C@@H]3C#N)n2)cc2c1B(O)OC2 (single isomer, unassigned) [Example 041b, (trans)-3-[[5-chloro-2-[(1-hydroxy-7-methyl-3H-2,1-benzoxaborol-5-yl)amino]pyrimidin-4-yl]amino]tetrahydropyran-4-carbonitrile] |  |  | <19.9 | 36.2 | 134
N#C[C@H]1CCOC[C@@H]1Nc1nc(Nc2cc3c(c(C(F)(F)F)c2)B(O)OC3)ncc1Cl (single isomer, unassigned) [Example 042b, (trans)-3-((5-chloro-2-((1-hydroxy-7-(trifluoromethyl)-1,3-dihydrobenzo[c][1,2]oxaborol-5-yl)amino)pyrimidin-4-yl)amino)tetrahydro-2H-pyran-4-carbonitrile] | 98.2 | 690 | <19.9 |  | 
Cc1cnc(Nc2cc3c(c(C(F)(F)F)c2)B(O)OC3)nc1N[C@H]1COC[C@@H]1C#N (single isomer, unassigned) [Example 043b, (trans)-4-[[2-[[1-hydroxy-7-(trifluoromethyl)-3H-2,1-benzoxaborol-5-yl]amino]-5-methyl-pyrimidin-4-yl]amino]tetrahydrofuran-3-carbonitrile] | 7.6 | 298 | <19.9 |  | 
